Tests used:
[1] = Cytotoxicity against african green monkey Vero cells assessed as cell viability after 2 days by MTS/PMS assay; type: cell-based; conditions: chlorocebus sabaeus
[2] = Cytotoxicity against bovine MDBK cells assessed as cell viability after 3 days by MTS/PMS assay; type: cell-based, Bos taurus; conditions: cattle
[3] = Cytotoxicity against human HepG2(2.2.15) cells assessed as cell viability after 9 days by MTS/PMS assay; type: cell-based
Hepatitis B virus [4] = assay: Antiviral activity against Hepatitis B virus infected in HepG2(2.2.15) cells assessed as reduction in HBsAg level at 100 uM after 9 days by ELISA relative to control; type: functional; conditions: HepG2 2.2.15, 216 h
Human alphaherpesvirus 1 [5] = assay: Antiviral activity against Herpes simplex virus (type 1 / strain F) infected in Vero cells assessed as reduction of number of viral plaques at 100 uM after 2 days relative to control; type: functional; conditions: Human alphaherpesvirus 1, strain F, 48 h
[6] = Antiviral activity against Bovine viral diarrhea virus 1-NADL ATCC VR534 infected in MDBK cells assessed as reduction of viral cytopathic effect at 100 uM after 2 days by MTS assay relative to control; type: functional; conditions: Bovine viral diarrhea virus isolates and strains, 48 h
[7] = Cytotoxicity against bovine MDBK cells assessed as cell viability after 72 hrs by MTS/PMS assay; type: cell-based, Bos taurus; conditions: cattle
[8] = Cytotoxicity against african green monkey Vero cells assessed as cell viability after 72 hrs by MTS/PMS assay; type: cell-based; conditions: chlorocebus sabaeus
[9] = Cytotoxicity against human HepG2(2.2.15) cells assessed as cell viability after 72 hrs by MTS/PMS assay; type: cell-based
Human alphaherpesvirus 1 [10] = assay: Antiviral activity against Herpes simplex virus (type 1 / strain F) infected in Vero cells assessed as reduction of number of viral plaques at 31.25 uM after 2 days relative to control; type: functional; conditions: Human alphaherpesvirus 1, strain F, 48 h
Human alphaherpesvirus 1 [11] = assay: Antiviral activity against Herpes simplex virus (type 1 / strain F) infected in Vero cells assessed as reduction of number of viral plaques after 2 days; type: functional, organism-based; conditions: Human alphaherpesvirus 1, strain F, 48 h
Hepatitis B virus [12] = assay: Antiviral activity against Hepatitis B virus infected in HepG2(2.2.15) cells assessed as reduction in HBsAg level at 20 uM after 9 days by ELISA; type: functional; conditions: HepG2 2.2.15, 216 h
[13] = Antiviral activity against Bovine viral diarrhea virus 1-NADL ATCC VR534 infected in MDBK cells assessed as reduction of viral cytopathic effect after 2 days bt MTS assay; type: functional, cell-based; conditions: Bovine viral diarrhea virus isolates and strains, 48 h

Structure (SMILES)	CC50 at 48 h [1]	CC50 at 72 h [2]	CC50 at 216 h [3]	inhibition at 100 µM (Hepatitis B virus [4])	inhibition at 100 µM (Human alphaherpesvirus 1 [5])	further results
Oc1ncnc2c1nnn2[C@@H]1c2ccccc2C[C@H]1O	> 500 µM	> 500 µM	> 500 µM	16.6%		
Oc1ncnc2c1nnn2[C@H]1c2ccccc2C[C@@H]1O	> 500 µM	> 500 µM	> 500 µM	25.2%		
Oc1ncnc2c1nnn2[C@H]1c2ccccc2C[C@H]1O	> 500 µM	> 500 µM	> 500 µM	27.7%	15.8%	
Oc1ncnc2c1nnn2[C@@H]1c2ccccc2C[C@@H]1O	> 500 µM	> 500 µM	> 500 µM	35.3%	12.8%	
Nc1ncnc2c1nnn2[C@@H]1c2ccccc2C[C@H]1O	> 500 µM	> 500 µM	> 500 µM	42.1%	7.8%	
Nc1ncnc2c1nnn2[C@H]1c2ccccc2C[C@@H]1O	311 µM	> 500 µM	> 500 µM	37.2%	14.5%	
Nc1ncnc2c1nnn2[C@@H]1c2ccccc2C[C@@H]1O	202 µM	> 500 µM	> 500 µM	17.6%		inhibition at 100 µM [6]: 19.4%
Nc1ncnc2c1nnn2[C@H]1c2ccccc2C[C@H]1O	> 500 µM	> 500 µM	> 500 µM	41.4%	20.9%	inhibition at 100 µM [6]: 42.1%
O[C@@H]1Cc2ccccc2[C@H]1n1cnc2c(Cl)ncnc21	> 500 µM	> 500 µM	> 500 µM	22.6%	7.2%	
O[C@H]1Cc2ccccc2[C@@H]1n1cnc2c(Cl)ncnc21	> 500 µM	> 500 µM	> 500 µM	14.2%	16.2%	
O[C@@H]1Cc2ccccc2[C@@H]1n1cnc2c(Cl)ncnc21						CC50 at 72 h [7]: 14.3 µM; CC50 at 72 h [8]: 254 µM; CC50 at 72 h [9]: 308 µM; inhibition at 31.25 µM (Human alphaherpesvirus 1 [10]): 20.9%
O[C@H]1Cc2ccccc2[C@H]1n1cnc2c(Cl)ncnc21	> 500 µM	> 500 µM	> 500 µM	30.8%	23.2%	inhibition at 100 µM [6]: 19.7%
Nc1nc2c(ncn2COCCO)c(=O)[nH]1 [ACYCLOVIR]						EC50 (Human alphaherpesvirus 1 [11]): 0.5 µM
Nc1ccn([C@@H]2CS[C@H](CO)O2)c(=O)n1 [LAMIVUDINE]						inhibition at 20 µM (Hepatitis B virus [12]): 45%
NC(=O)c1ncn([C@@H]2O[C@H](CO)[C@@H](O)[C@H]2O)n1 [RIBAVIRIN]						EC50 [13]: 4.6 µM

Source: ChEMBL document CHEMBL2146401, “Synthesis and biological evaluation of novel homochiral carbocyclic nucleosides from 1-amino-2-indanols” (Bioorg Med Chem, 2012)
